For six molecules, ring closure, isolated yield, IC50 and ring closure, yield after HPLC results are on record in patent US20240294551A1 (AMGEN INC., priority 2022, published 2024).

The structures appear in SMILES notation. Structures can show the parent of a compound that is named as a salt. Where two headings read alike, the source gives them in different places.

The conditions of data set [1]: 16-membered ring.
Data set [2] concerns the target His-tagged KRAS G12D protein (Homo sapiens (Human), UniProt P01116, G12D). Nature of the data set: KRAS G12D TR-FRET Assay. It counts as binding. The note with it: read-out: KRAS G12D Binding IC50. The procedure, abridged:
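Each incubation ran at room temperature: enzyme with compound for 30 minutes, peptide for one hour, and detection reagents (0.4 nM europium anti-6×His, 5 nM streptavidin-d2) for one hour more. Protein and peptide stocks were each diluted to 20 nM before addition.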
For orientation: Time-resolved FRET reads energy transfer from a long-lived donor to a nearby acceptor.

For data set [3], the target named is GDP-bound KRAS protein (aa 1-169), containing both G12D and C118A amino acid substitutions (Homo sapiens (Human), UniProt P01116, C118A/G12D). Nature of the data set: KRAS G12D Coupled Nucleotide Exchange Assay. It counts as biochemical. The following applies: read-out: KRAS G12D Coupled Exchange IC50.
Chain of GDP-bound KRAS protein (aa 1-169), containing both G12D and C118A amino acid substitutions (P01116 other isoform, or with tags, fused parts or gaps G12D/C118A): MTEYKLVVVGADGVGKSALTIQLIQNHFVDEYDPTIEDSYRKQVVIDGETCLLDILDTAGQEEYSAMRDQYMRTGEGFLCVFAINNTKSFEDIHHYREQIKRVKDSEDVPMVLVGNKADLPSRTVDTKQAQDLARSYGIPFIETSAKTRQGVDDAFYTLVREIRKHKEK
Data set [4] has as its system Phosphorylation of ERK1/2 in AsPC-1 cells. Nature of the data set: Phospho-ERK1/2 MSD Assay. The note with it: 2 h, read-out: 2 h p-ERK (AsPC-1 cells), IC50. Format: cell-based, human. In a few lines: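 Read-out: MSD electrochemiluminescent detection of phosphorylated ERK1/2 in whole-cell lysates, fitted to a 4-parameter logistic curve for IC50. Prior to lysis, AsPC-1 cells (25,000 per well) received a 2 h compound dose-response at 37 °C.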

A further data set deals with SW620 cells. Nature of the data set: SW620 CTG Assay (CellTiter-Glo cell viability). Format: cell-based, human. The following applies: SW620, 72 h; third value of the cell; read-out: G12D/C/V Cell Proliferation CTG (72 h) SW620. The procedure, abridged:
(§1)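 IC50 values derive from 4-parameter logistic fits of CellTiter-Glo luminescence, expressed relative to DMSO. Compound dilution series were applied to overnight-seeded AsPC-1 or SW620 cells (RPMI 1640, 10% FBS) for 72 h at 37 °C, 5% CO2.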

In a further data set the test system is AsPC-1 cells. Nature of the data set: AsPC-1 CTG Assay (CellTiter-Glo cell viability). It counts as cell-based, human. The note with it: AsPC-1, 72 h; first value of the cell; read-out: G12D/C/V Cell Proliferation CTG (72 h) AsPC-1. In a few lines: as §1
(ATP-based viability assays read luminescence as a measure of living cells.)

The conditions of data set [5]: from Oc1nc(OC[C@@]23CCCN2C[C@H](F)C3)nc2c(F)c(-c3c(CCCCOC[C@H]4CNCCO4)c(Cl)cc4[nH]ncc34)ncc12; snar bond; 16-membered ring; BroP/DIEA; MeCN/DMSO; 4.7 mM; 25.0 °C.

Chain of His-tagged KRAS G12D protein (P01116 other isoform, or with tags, fused parts or gaps G12D): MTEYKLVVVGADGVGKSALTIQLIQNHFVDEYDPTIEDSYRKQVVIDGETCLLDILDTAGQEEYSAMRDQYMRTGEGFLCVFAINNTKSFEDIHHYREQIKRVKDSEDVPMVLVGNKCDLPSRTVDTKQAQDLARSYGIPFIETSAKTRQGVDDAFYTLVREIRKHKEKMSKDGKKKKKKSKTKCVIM

The molecule `CC(C)(C)OC(=O)n1ncc2c3c(ccc21)OCCCC(=O)O[C@@H]1CCCN(C1)c1nc(OC[C@@]24CCCN2C[C@H](F)C4)nc2c(F)c-3ncc12` showed a ring closure, isolated yield in data set [1] (from CC(C)(C)OC(=O)n1ncc2c(-c3ncc4c(N5CCC[C@@H](OC(=O)CCCBr)C5)nc(OC[C@@]56CCCN5C[C@H](F)C6)nc4c3F)c(O)ccc21, ether bond, K2CO3, DMF, 17.5 mM) of 24%.
On to `Cc1cc2c(cnn2C2CCCCO2)c2c1CCC=CCCC1(O)CCCN(C1)c1nc(OC[C@@]34CCCN3C[C@H](F)C4)nc3c(F)c-2ncc13` (some centres unmarked), for which the ring closure, isolated yield in data set [1] (from C=CCCc1c(C)cc2c(cnn2C2CCCCO2)c1-c1ncc2c(N3CCCC(O)(CCC=C)C3)nc(OC[C@@]34CCCN3C[C@H](F)C4)nc2c1F, rcm bond, Hoveyda-Grubbs II (20 mol%)/TsOH, DCE, 1.6 mM, 80.0 °C) was found to be 71%.
In data set [1] (from Cc1cc2c(cnn2C2CCCCO2)c(-c2ncc3c(N4CCCC(c5cn[nH]n5)C4)nc(OC[C@@]45CCCN4C[C@H](F)C5)nc3c2F)c1CCCCl, other bond, K2CO3/TBAI, MeCN, 6.9 mM, 85.0 °C), `Cc1cc2c(cnn2C2CCCCO2)c2c1CCCn1ncc(n1)C1CCCN(C1)c1nc(OC[C@@]34CCCN3C[C@H](F)C4)nc3c(F)c-2ncc13` (some centres unmarked) showed a ring closure, isolated yield of 31%.
Consider `Cc1cc2c(cnn2C2CCCCO2)c2c1CC=CCOC[C@@H]1CCCN(C1)c1nc(OC[C@@]34CCCN3C[C@H](F)C4)nc3c(F)c-2ncc13` (mixture of isomers), for which, in data set [1] (from C=CCOC[C@@H]1CCCN(c2nc(OC[C@@]34CCCN3C[C@H](F)C4)nc3c(F)c(-c4c(CC=C)c(C)cc5c4cnn5C4CCCCO4)ncc23)C1, rcm bond, Hoveyda-Grubbs II/TsOH, 1,2-dichloroethane, 2.1 mM, 80.0 °C), the ring closure, isolated yield is 21%.
The molecule `O[C@@H]1C[C@@H]2COCCCCc3c(Cl)cc4[nH]ncc4c3-c3ncc4c(nc(OC[C@@]56CCCN5C[C@H](F)C6)nc4c3F)N(C1)C2` (mixture of isomers) had a ring closure, isolated yield in data set [1] (from Oc1nc(OC[C@@]23CCCN2C[C@H](F)C3)nc2c(F)c(-c3c(CCCCOC[C@@H]4CNC[C@H](O)C4)c(Cl)cc4[nH]ncc34)ncc12, snar bond, BroP/DIEA, MeCN/DMSO, 4.7 mM, 25.0 °C) of 25%.
As to `Fc1c2ncc3c(nc(OC[C@@]45CCCN4C[C@H](F)C5)nc13)N1CCO[C@@H](COCCCCc3c(Cl)cc4[nH]ncc4c3-2)C1` [Example 135, (17R)-9-Chloro-30-fluoro-24-(((2R,7aS)-2-fluorotetrahydro-1H-pyrrolo[1,2-a]pyrrol-7a(5H)-yl)methoxy)-15,18-dioxa-5,6,21,23,25,29-hexaazahexacyclo[24.3.1.1˜17,21.0˜2,10˜.0˜3,7˜.0˜22,27˜]hentriaconta-1(30),2,4,7,9,22,24,26,28-nonaene trifluoroacetate], the IC50 in data set [2] is 3 nM; in data set [3], 2 nM; in data set [4], 17 nM; in the data set with SW620 cells, 55.1 nM; with AsPC-1 cells, 250 nM. Moreover, the ring closure, yield after HPLC in data set [5] was 39%.
